# Results as given in US9855270B2, “Methods and compositions for modulating estrogen receptor mutants” (priority 2014, dated 2018).
# Where two headings read alike, the source gives them in different places.
# Key:
# [1] = tested on: MCF-7 cells stably expressing EF1 HA-ER-α L536P; test: cells; format: cell-based; details: EF1 HA-ER-α L536P; for Percent inhibition compared to vehicle: 5-Day Incubation; for Efficacy (Emax): Day 5 relative to Day 0; for EC50: Homo sapiens, MCF7, read-out: Potency (EC50; nM)
# From the text: (§1) MCF-7 Mutant ER-α Stable Cell Line Generation: MCF-7 cells stably expressing wild-type or ER-α mutants were generated by subcloning ESR1 wild-type and mutant cDNAs containing an amino terminal hemagglutinin tag into pCDH-EF1-MCS-(PGK-Puro) (referred to as EF1 HA-ER-α) and pCDH-UbC-MCS-EF1-Hygro (referred to as UbC HA-ER-α) (System Biosciences). The resulting plasmids, in addition to an empty vector negative control, were subsequently cotransfected into HEK293T cells with the pPACKH1 packaging plasmid mix (System Biosciences) according to the manufacturer's protocol. Four days post transfection lentiviral particles were purified from the cell medium, tiered and stored at −80° C. MCF-7 cells were transduced with the purified viral particles and stable cell lines were selected by growth in RPMI containing 10% FBS plus 1 μG/mL puromycin or 200 μG/mL hygromycin for pCDH-EF1-MCS-(PGK-Puro) and pCDH-UbC-MCS-EF1-Hygro, respectively.
# (§2) MCF-7 Stable Cell Line Viability: MCF-7 cells were enumerated with a hemacytometer adjusted to a concentration of 40,000 cells per mL in Phenol Free RPMI containing 10% CSS with NEAA and Sodium Pyruvate. 16 microliters of the cell suspension was added to each well of a 384 well tissue culture treated white clear bottom polystyrene plate (Corning) using a Matrix 16 channel electronic pipette. The cells were incubated overnight to allow the cells to adhere. The following day, 16 microliters of Phenol Free RPMI containing 10% CSS with NEAA and Sodium Pyruvate was added to the wells of one plate, followed by 16 μL of CellTiter-Glo (Promega, Madison Wis.) luminescent cell viability reagent using a Matrix 16 channel electronic pipette. […] The “average” of the relative luminescence units (RLUs) of the wells are considered to be the baseline value at time=zero. In addition, a 10 point, 1:5 serial dilution in DMSO (Sigma-Aldrich) was performed using Matrix 12 channel electronic pipette, including DMSO only as […]. 4 μL of each dilution was then added to 196 μL of RPMI containing 10% CSS with NEAA and Sodium Pyruvate. 16 μL of medium containing compound was added to the cells at a final concentration ranging from 10 μM to 5 pM. Compound dilution in media and subsequent addition to cells were carried out using Matrix 12 channel electronic pipettes. After 5 day compound exposure, 16 μL of CellTiter-Glo (Promega, Madison Wis.) luminescent cell viability reagent was added to the cells using a Matrix 16 channel electronic pipette. CellTiter-Glo added to 32 μL of medium without cells was used to obtain a background value. […] The relative luminescence units (RLUs) of each well were measured, and relative proliferation (fold) of each sample was determined as follows: (RLU sample−RLU background)/(RLU at T=0)=relative proliferation
# (§3) The UbC promoter is reported by the manufacturer (System Biosciences) to express low to moderate RNA levels while the EF1 promoter expresses high levels (System Biosciences).
# [2] = tested on: MCF-7 cells stably expressing EF1 HA-ER-α L536R; test: cells; format: cell-based; details: EF1 HA-ER-α L536R; for Percent inhibition compared to vehicle: 5-Day Incubation; for Efficacy (Emax): Day 5 relative to Day 0; for EC50: Homo sapiens, MCF7, read-out: Potency (EC50; nM)
# From the text: as §1, §2, §3
# [3] = tested on: MCF-7 cells stably expressing UbC HA-ER-α L536R; test: cells; format: cell-based; details: UbC HA-ER-α L536R; for EC50: Homo sapiens, MCF7, read-out: Potency (EC50; nM); for Percent inhibition compared to vehicle: 5-Day Incubation; for Efficacy (Emax): Day 5 relative to Day 0
# From the text: as §1, §2, §3
# [4] = tested on: MCF-7 cells stably expressing UbC HA-ER-α wild-type; test: MCF-7 Stable Cell Line Viability (UbC HA-ER-α series); format: cell-based; details: UbC HA-ER-α Wild-type; for EC50: Homo sapiens, MCF7, read-out: Potency (EC50; nM); for Percent inhibition compared to vehicle: 5-Day Incubation; for Efficacy (Emax): Day 5 relative to Day 0
# From the text: as §1, §2, §3
# [5] = tested on: MCF-7 cells (negative control); test: as above; format: cell-based; details: Receptor None (MCF-7 negative control); for EC50: Homo sapiens, MCF7, read-out: Potency (EC50; nM)
# From the text: as §1, §2, §3
# [6] = tested on: MCF-7 cells stably expressing ER-α mutants; details: 5 day proliferation assays; depending on the mutation and assay format
# Procedure: Potency and efficacy of ERM 1-3 were measured in vitro in ER dependent transcriptional reporter assays and viability assays of MCF-7 cells stably expressing ER-α mutants.
# as §1
# MCF-7 Stable Cell Line Viability: MCF-7 cells were enumerated with a hemacytometer adjusted to a concentration of 40,000 cells per mL in Phenol Free RPMI containing 10% CSS with NEAA and Sodium Pyruvate. 16 microliters of the cell suspension was added to each well of a 384 well tissue culture treated white clear bottom polystyrene plate (Corning) using a Matrix 16 channel electronic pipette. The cells were incubated overnight to allow the cells to adhere. […] The “average” of the relative luminescence units (RLUs) of the wells are considered to be the baseline value at time=zero. […] The relative luminescence units (RLUs) of each well were measured, and relative proliferation (fold) of each sample was determined as follows: (RLU sample−RLU background)/(RLU at T=0)=relative proliferation
# Potency and efficacy of ERM 4-23 were measured in vitro in ER dependent transcriptional reporter assays and viability assays of MCF-7 cells stably expressing ER-α mutants.
# [7] = tested on: MCF-7 cells transduced with an empty EF1 lentiviral vector (negative control); test: MCF-7 Stable Cell Line Viability (EF1 HA-ER-α series); format: cell-based; details: for EC50: Homo sapiens, MCF7, Receptor None (empty EF1 lentiviral vector), read-out: Potency (EC50; nM); for Percent inhibition compared to vehicle / Efficacy (Emax): Receptor None (empty EF1 lentiviral vector); for Percent inhibition compared to vehicle: 5-Day Incubation; for Efficacy (Emax): Day 5 relative to Day 0
# From the text: as §1, §2, §3
# [8] = tested on: MCF-7 cells stably expressing EF1 HA-ER-α wild-type; test: as above; format: cell-based; details: EF1 HA-ER-α Wild-type; for Percent inhibition compared to vehicle: 5-Day Incubation; for Efficacy (Emax): Day 5 relative to Day 0; for EC50: Homo sapiens, MCF7, read-out: Potency (EC50; nM)
# From the text: as §1, §2, §3
# [9] = Antagonist Mode, −E2 (Table 27)
structure (smiles),measurement,setting,value
"CC1=C(c2cccc(O)c2)[C@H](c2ccc(OCCN3CC(CF)C3)cc2)Oc2ccc(O)cc21 [Compound 4-23, (S)-2-(4-(2-(3-(fluoromethyl)azetidin-1-yl)ethoxy)phenyl)-3-(3-hydroxyphenyl)-4-methyl-2H-chromen-6-ol]",Percent inhibition compared to vehicle,"[1]; Agonist Mode, −E2",62%
same,Efficacy (Emax),"[1]; Agonist Mode, −E2",3.11 ± 0.40
same,Percent inhibition compared to vehicle,"[1]; Antagonist Mode, +E2",64%
same,Efficacy (Emax),"[1]; Antagonist Mode, +E2",3.25 ± 0.07
same,EC50,"[1]; Antagonist Mode, +E2",15.1 ± 13.6 nM
same,EC50,[1]; [9],4.78 ± 4.67 nM
same,Percent inhibition compared to vehicle,"[2]; Agonist Mode, −E2",57%
same,Efficacy (Emax),"[2]; Agonist Mode, −E2",2.94 ± 0.34
same,Percent inhibition compared to vehicle,"[2]; Antagonist Mode, +E2",60%
same,Efficacy (Emax),"[2]; Antagonist Mode, +E2",2.76 ± 0.50
same,EC50,"[2]; Antagonist Mode, +E2",53.3 ± 65.8 nM
same,EC50,[2]; [9],11.3 ± 9.22 nM
same,EC50,"[3]; Agonist Mode, −E2",0.334 ± 0.27 nM
same,EC50,"[3]; Antagonist Mode, +E2",2.58 ± 0.181 nM
same,Percent inhibition compared to vehicle,"[3]; Agonist Mode, −E2",53%
same,Efficacy (Emax),"[3]; Agonist Mode, −E2",1.80 ± 0.26
same,Percent inhibition compared to vehicle,"[3]; Antagonist Mode, +E2",71%
same,Efficacy (Emax),"[3]; Antagonist Mode, +E2",1.73 ± 0.31
same,EC50,"[4]; Agonist Mode, −E2",4.04 ± 8.01 nM
same,EC50,"[4]; Antagonist Mode, +E2",0.599 ± 0.3 nM
same,Percent inhibition compared to vehicle,"[4]; Agonist Mode, −E2",39%
same,Efficacy (Emax),"[4]; Agonist Mode, −E2",1.13 ± 0.13
same,Percent inhibition compared to vehicle,"[4]; Antagonist Mode, +E2",76%
same,Efficacy (Emax),"[4]; Antagonist Mode, +E2",1.20 ± 0.10
same,EC50,"[5]; Agonist Mode, −E2",0.227 ± 0.21 nM
same,EC50,"[5]; Antagonist Mode, +E2",0.378 ± 0.216 nM
same,Percent inhibition compared to vehicle,"[5]; Agonist Mode, −E2, 5-Day Incubation",31%
same,Efficacy (Emax),"[5]; Agonist Mode, −E2, Day 5 relative to Day 0",1.20 ± 0.27
same,Percent inhibition compared to vehicle,"[5]; Antagonist Mode, +E2, 5-Day Incubation",66%
same,Efficacy (Emax),"[5]; Antagonist Mode, +E2, Day 5 relative to Day 0",1.08 ± 0.04
same,reduced the number of viable cells (compared to DMSO control),[6],49%-90%
same,EC50,"[7]; Antagonist Mode, +E2",2.81 ± 3.28 nM
same,EC50,[7]; [9],0.286 ± 0.294 nM
same,Percent inhibition compared to vehicle,"[7]; Agonist Mode, −E2",52%
same,Efficacy (Emax),"[7]; Agonist Mode, −E2",1.06 ± 0.24
same,Percent inhibition compared to vehicle,"[7]; Antagonist Mode, +E2",76%
same,Efficacy (Emax),"[7]; Antagonist Mode, +E2",0.96 ± 0.12
same,Percent inhibition compared to vehicle,"[8]; Agonist Mode, −E2",62%
same,Efficacy (Emax),"[8]; Agonist Mode, −E2",2.17 ± 0.03
same,Percent inhibition compared to vehicle,"[8]; Antagonist Mode, +E2",68%
same,Efficacy (Emax),"[8]; Antagonist Mode, +E2",2.17 ± 0.29
same,EC50,"[8]; Antagonist Mode, +E2",8.65 ± 10.5 nM
same,EC50,[8]; [9],2.13 ± 2.06 nM
